Tested on: harmaline-induced motor impairment in male SD rats
Assay: Wire grip test with harmaline in SD rats
Assay type: in vivo, rat
Settings: harmaline 30 mg/kg, dose of 1, 3 and 10 mg/kg
Text: Each of six groups of male SD rats were subjected to a tremor assessment, followed by three ADL-like measures including open field test, rotarod test, and wire grip test after receiving doses of either vehicle, Formula (I), or propranolol, followed by either saline or harmaline, as outlined below in Table 22 below.
Fifteen minutes after the rotarod test, rats were subjected to a wire grip test using an 80 cm long and 7 mm in diameter wire placed at a height of 50 cm.

CC(C)(C)NC(=O)CN1CCC(CNC(=O)c2cc(F)cc(Cl)c2)CC1.Cl [Study drug]
latency to fall in wire grip test vs vehicle and harmaline only (listed as Formula (I)): significantly attenuated | latency to fall in wire grip test vs vehicle and harmaline only (listed as compound of Formula (I)): significantly attenuated decrease in fall off latency

Source: US20250170114A1, “METHODS OF TREATMENT USING T-TYPE CALCIUM CHANNEL MODULATORS” (Praxis Precision Medicines, Inc., priority 2022, published 2025)
